Assay: Neutralization of odoriferous acid by GC-FID
Format: physicochemical
Method: Hexamine, which is weakly basic in nature, was incubated with two commonly known odoriferous acids, i.e., 3-hydroxy-3-methyl-hexanoic acid (HMHA) and hexanoic acid, and the potential neutralization effect was studied by using a Gas Chromatograph with a Flame Ionization Detector (GC-FID). The chromatograms showing the neutralization of 3-hydroxy-3-methyl-hexanoic acid (HMHA) by sodium hydroxide and hexamine; and the neutralization of hexanoic acid by hexamine are shown in FIGS. 1 and 2, respectively.

Compound: C1N2CN3CN1CN(C2)C3 [hexamine]
- neutralization of odoriferous acid (FIG. 1): capable of neutralizing the tested odoriferous acids
- neutralization of odoriferous acid (FIG. 2): capable of neutralizing the tested odoriferous acids

— patent publication US10596092B2, “Deodorant composition and a method for preparing thereof” (priority 2017, dated 2020)
